Article PMC9804387, “Substrate Peptidomimetic Inhibitors of P. falciparum Plasmepsin X with Potent Antimalarial Activity” (Chemmedchem, 2022)

Legend:
[1] = tested on: SERA5 processing by SUB1, indicative of upstream activity by PMX; assay: SERA5 processing inhibition assay in parasites (western blot, anti-SERA5); format: cell-based, P. falciparum; conditions: WM382 (1) at 2.5 nM
Excerpt: PMX and PMIX ligand cleavage in P. falciparum parasites. It was next determined whether 38 could inhibit PMX and PMIX processing of known invasion and egress ligands in P. falciparum parasites. […] SERA5 is not a direct substrate of PMX, but is processed by SUB1 which itself is activated by PMX. The degree of downstream processing of SERA5 by SUB1 is indicative of PMX activity.
(§1) In this experiment, synchronized late trophozoite/early schizont stage parasites, expressing HA‐tagged ASP, were incubated with 38 (10 μM), the positive control WM382 (1) (2.5 nM) (a dual potent inhibitor of PMIX and PMX) and the DMSO vehicle control. Parasites from each treatment condition were then lysed and the processing of the known PMX and PMIX substrates were detected by western blot as a corollary of protease activity.
P. falciparum ASP and SERA5 Processing Inhibition Assay. P. falciparum substrate processing inhibition assays were performed as previously described.[28] Synchronized ring stage cultures were treated with test compounds 38 (10 μM) and WM382 (2.5 nM)[28] or DMSO as a vehicle control. […] HA‐tagged apical sushi protein (ASP) was detected in the merozoite fraction with anti‐HA mAb and SERA5 was detected in the supernatant fraction with an anti‐SERA5 polyclonal Ab. […]

[2] = tested on: PMIX; design: method as in PMID 29074775, PMID 32109369, PMID 23260352, PMID 29519896; conditions: Figure 1, described in literature; cited from earlier work
[3] = tested on: PMX; conditions: Figure 1, described in literature; cited from earlier work
[4] = tested on: PMIX processing of the ASP protein; assay: ASP processing inhibition assay in parasites (western blot, anti-HA); format: cell-based, P. falciparum; conditions: WM382 (1) at 2.5 nM, HA‐tagged ASP parasites
Procedure: as §1
P. falciparum ASP and SERA5 Processing Inhibition Assay. P. falciparum substrate processing inhibition assays were performed as previously described.[28] Synchronized ring stage cultures were treated with test compounds 38 (10 μM) and WM382 (2.5 nM)[28] or DMSO as a vehicle control. The parasite cultures were grown to the schizont stage before passing over LD magnetic columns (Miltenyi Biotech) to remove uninfected erythrocytes. Parasites were eluted from columns with RPMI 1640 (in‐house) culture medium to which the appropriate inhibitor at the same concentration had been added. Eluted parasites were adjusted to 5×10^6 schizonts/mL and 150 μL added per well of a 96‐well flat‐bottomed culture plate. […] HA‐tagged apical sushi protein (ASP) was detected in the merozoite fraction with anti‐HA mAb and SERA5 was detected in the supernatant fraction with an anti‐SERA5 polyclonal Ab. […]

[5] = tested on: Pf 3D7; design: method as in PMID 29074775, PMID 32109369, PMID 23260352, PMID 29519896; conditions: Figure 1, described in literature; cited from earlier work

CCC1(CC)CC(=O)N([C@@H]2CCOc3ccc(C(=O)N[C@H]4CC(C)(C)Oc5ccccc54)cc32)C(=N)N1 [WM382]
SERA5 processing (western blot) [1]: complete inhibition of SERA5 processing | IC50 [2]: 0.4 nM | IC50 [3]: 0.04 nM | ASP processing by PMIX (western blot) [4]: inhibition of ASP processing | EC50 [5]: 0.6 nM
